Results on 34 compounds are retold here after US8394801B2, “Quinoxaline derivatives and their use for treating benign and malignant tumour disorders” (Aeterna Zentaris GmbH, priority 2009, dated 2013).

One data set deals with HCT116. As to the kind of experiment: Proliferation assay (Alamar Blue / XTT), HCT116. It counts as cell-based. The conditions noted are these: Homo sapiens; cell line HCT-116 (colon). (The colour change of resazurin is a common sign of viable cells or microbes.)
Another data set deals with MDA MB468. Put plainly: Proliferation assay (Alamar Blue / XTT), MDA MB468. It counts as cell-based. The following applies: Homo sapiens, MDA-MB-468; cell line MDA-MB468 (breast).
Another data set has as its system PC-3. Put plainly: Proliferation assay (Alamar Blue / XTT), PC-3. It counts as cell-based. The conditions noted are these: Homo sapiens, cell line PC3 (prostate).
In another data set the test system is A549. Put plainly: Proliferation assay (Alamar Blue / XTT), A549. The conditions noted are these: Homo sapiens; cell line A549 (lung). It counts as cell-based.
The subject of a further data set is U87MG. As to the kind of experiment: Proliferation assay (Alamar Blue / XTT), U87MG. The format is cell-based. The following applies: Homo sapiens, U-87 MG; cell line U87MG (glioma).

Each structure is given as a SMILES string.

In the case of `CNC(=O)Nc1cnc2ccc(-c3cc(C)c(O)c(C)c3)cc2n1` [Compound 16, 1-[7-(4-Hydroxy-3,5-dimethylphenyl)quinoxalin-2-yl]-3-methylurea], the melting point (commonly the temperature of the solid-liquid transition) was found to be 251 °C.

`CCNC(=O)Nc1cnc2ccc(-c3cc(C)c(O)c(C)c3)cc2n1` [Compound 19, 1-Ethyl-3-[7-(4-hydroxy-3,5-dimethylphenyl)quinoxalin-2-yl]urea] registered a melting point of 257 °C.

`Oc1c(Cl)cc(-c2ccc3ncc(NC(=S)NC4CCCCC4)nc3c2)cc1Cl` [Compound 21, 1-Cyclohexyl-3-[7-(3,5-dichloro-4-hydroxyphenyl)quinoxalin-2-yl]-thiourea]: the melting point stood at 284 °C.

Regarding `Cc1cc(-c2ccc3ncc(NC(=S)NC4CCCC4)nc3c2)cc(C)c1O` [Compound 24, 1-Cyclopentyl-3-[7-(4-hydroxy-3,5-dimethylphenyl)quinoxalin-2-yl]-thiourea], the melting point lay in the range of 271 to 272 °C.

The compound `Cc1cc(-c2ccc3ncc(NC(=S)NC(C)(C)C)nc3c2)cc(C)c1O` [Compound 25, 1-tert-Butyl-3-[7-(4-hydroxy-3,5-dimethylphenyl)quinoxalin-2-yl]thiourea] had a melting point of 238 to 240 °C.

Regarding `CCCCCNC(=O)Nc1cnc2ccc(-c3cc(C)c(O)c(C)c3)cc2n1` [Compound 33, 1-[7-(4-Hydroxy-3,5-dimethylphenyl)quinoxalin-2-yl]-3-pentylurea], the melting point was in the range of 274 to 275 °C.

Compound `CCCCCCNC(=O)Nc1cnc2ccc(-c3cc(C)c(O)c(C)c3)cc2n1` [Compound 35, 1-Hexyl-3-[7-(4-hydroxy-3,5-dimethylphenyl)quinoxalin-2-yl]urea] gave a melting point of 272 to 273 °C.

On to `Cc1ccc(NC(=O)Nc2cnc3ccc(-c4cc(C)c(O)c(C)c4)cc3n2)cc1` [Compound 46, 1-[7-(4-Hydroxy-3,5-dimethylphenyl)quinoxalin-2-yl]-3-p-tolylurea], for which the melting point was > 300 °C.

For `Cc1cc(-c2ccc3ncc(NC(=O)Nc4ccc(Cl)c(Cl)c4)nc3c2)cc(C)c1O` [Compound 47, 1-(3,4-Dichlorophenyl)-3-[7-(4-hydroxy-3,5-dimethylphenyl)quinoxalin-2-yl]urea], the melting point is > 300 °C.

Take `COc1ccc(NC(=O)Nc2cnc3ccc(-c4cc(C)c(O)c(C)c4)cc3n2)cc1` [Compound 48, 1-[7-(4-Hydroxy-3,5-dimethylphenyl)quinoxalin-2-yl]-3-(4-methoxy-phenyl)urea]: the melting point is > 300 °C.

In the case of `Cc1cc(-c2ccc3ncc(NC(=O)Nc4ccc5ccccc5c4)nc3c2)cc(C)c1O` [Compound 50, 1-[7-(4-Hydroxy-3,5-dimethylphenyl)quinoxalin-2-yl]-3-naphthalen-2-ylurea], the melting point was > 300 °C.

Take `Cc1cc(-c2ccc3ncc(NC(=O)NC(C)(C)CC(C)(C)C)nc3c2)cc(C)c1O` [Compound 51, 1-[7-(4-Hydroxy-3,5-dimethylphenyl)quinoxalin-2-yl]-3-(1,1,3,3-tetra-methylbutyl)urea]: the melting point is > 300 °C.

Compound `Cc1cc(-c2ccc3ncc(NC(=O)Nc4cccnc4)nc3c2)cc(C)c1O` [Compound 52, 1-[7-(4-Hydroxy-3,5-dimethylphenyl)quinoxalin-2-yl]-3-pyridin-3-ylurea] had a melting point of 298 to 300 °C.

For the compound `Cc1cc(-c2ccc3ncc(NC(=O)N[C@H](C)C(C)C)nc3c2)cc(C)c1O` [Compound 53, 1-((R)-1,2-Dimethylpropyl)-3-[7-(4-hydroxy-3,5-dimethylphenyl)-quinoxalin-2-yl]urea], the melting point stood at 265 °C.

As for `Cc1cc(-c2ccc3ncc(NC(=O)N[C@@H](C)C(C)C)nc3c2)cc(C)c1O` [Compound 54, 1-((S)-1,2-Dimethylpropyl)-3-[7-(4-hydroxy-3,5-dimethylphenyl)-quinoxalin-2-yl]urea], the melting point stood at 267 °C.

Take `Cc1cc(-c2ccc3ncc(NC(=O)NCC(C)(C)C)nc3c2)cc(C)c1O` [Compound 67, 1-(2,2-Dimethyl-propyl)-3-[7-(4-hydroxy-3,5-dimethyl-phenyl)-quinoxalin-2-yl]-urea]: the melting point is 275 to 276 °C. In the data set on HCT116, the EC50 (usually the concentration that produces a half-maximal response) is 0.325 µM. The same compound displayed an EC50 with MDA MB468 of 0.384 µM. The EC50 with PC-3 is 0.188 µM. In the data set on A549, the EC50 was 0.352 µM. Further, in the data set on U87MG, the EC50 stood at 0.222 µM.

Take `CC(C)NC(=O)Nc1cnc2ccc(-c3ccc(N)cc3)cc2n1` [Compound 68, 1-[7-(4-Amino-phenyl)-quinoxalin-2-yl]-3-isopropyl-urea]: the melting point was > 300 °C. This compound also displayed a concentration for a half-maximal effect (EC50) in the data set with HCT116 of 0.474 µM. Moreover, the EC50 in the data set on MDA MB468 is 1.67 µM. In the data set on PC-3, the EC50 was 0.453 µM. In the data set with A549, this compound had an EC50 of 0.626 µM. In addition, the EC50 with U87MG turned out to be 0.529 µM.

Turning to `CC(C)NC(=O)Nc1cnc2ccc(-c3cnn(C)c3)cc2n1` [Compound 70, 1-Isopropyl-3-[7-(1-methyl-1H-pyrazol-4-yl)-quinoxalin-2-yl]-urea], the melting point fell in the range of 260 to 263 °C. The EC50 with HCT116 was found to be 0.564 µM. In addition, the EC50 in the data set with MDA MB468 turned out to be 0.991 µM. The same compound showed an EC50 in the data set with PC-3 of 0.601 µM. For the same compound, it took 1.32 µM to reach a half-maximal effect in the data set on A549 (EC50). Also, the EC50 with U87MG came out at 0.801 µM.

With `CCCCCNC(=O)Nc1cnc2ccc(-c3cc(Cl)c(O)c(Cl)c3)cc2n1` [Compound 71, 1-[7-(3,5-Dichloro-4-hydroxy-phenyl)-quinoxalin-2-yl]-3-pentyl-urea], the melting point is 297 to 298 °C.

On to `CCCCNC(=O)Nc1cnc2ccc(-c3cc(Cl)c(O)c(Cl)c3)cc2n1` [Compound 72, 1-Butyl-3-[7-(3,5-dichloro-4-hydroxy-phenyl)-quinoxalin-2-yl]-urea], for which the melting point is 297 to 298 °C. Moreover, in the data set on HCT116, it took 1.82 µM to reach a half-maximal effect (EC50). For the same compound, in the data set with MDA MB468, the midpoint of the response, the EC50, lay at 0.779 µM. The compound further yielded an EC50 in the data set with PC-3 of 0.88 µM. Moreover, the response in the data set on A549 was half-maximal at 3.26 µM (EC50). In the data set on U87MG, this compound gave an EC50 of 3.19 µM.

The compound `CCCNC(=O)Nc1cnc2ccc(-c3cc(Cl)c(O)c(Cl)c3)cc2n1` [Compound 73, 1-[7-(3,5-Dichloro-4-hydroxy-phenyl)-quinoxalin-2-yl]-3-propyl-urea] had a melting point of 295 to 296 °C. The compound also came in with an EC50 in the data set with HCT116 of 1.56 µM. A half-maximal effect in the data set on MDA MB468 (EC50) was put at 0.814 µM. The compound also displayed an EC50 in the data set with PC-3 of 1.18 µM. This compound gave an EC50 with A549 of 3.36 µM. A half-maximal effect in the data set with U87MG (EC50) was put at 4.14 µM.

As for `CCNC(=O)Nc1cnc2ccc(-c3cc(Cl)c(O)c(Cl)c3)cc2n1` [Compound 74, 1-[7-(3,5-Dichloro-4-hydroxy-phenyl)-quinoxalin-2-yl]-3-ethyl-urea], the melting point lay in the range of 295 to 296 °C. The same compound registered an EC50 with HCT116 of 3.09 µM. In addition, the EC50 in the data set with MDA MB468 came to 2.1 µM. For the same compound, the midpoint of the response in the data set on PC-3, the EC50, lay at 2.2 µM. Besides, the EC50 in the data set on A549 came out at 3.91 µM. In the data set with U87MG, this compound returned an EC50 of 10 µM.

Take `CCCCCCCNC(=O)Nc1cnc2ccc(-c3cc(Cl)c(O)c(Cl)c3)cc2n1` [Compound 75, 1-[7-(3,5-Dichloro-4-hydroxy-phenyl)-quinoxalin-2-yl]-3-heptyl-urea]: the melting point was in the range of 289 to 291 °C.

Compound `CC(C)NC(=O)Nc1cnc2ccc(-c3cc(Cl)c(O)c(Cl)c3)cc2n1` [Compound 76, 1-[7-(3,5-Dichloro-4-hydroxy-phenyl)-quinoxalin-2-yl]-3-isopropyl-urea] came in with a melting point of 298 to 300 °C.

`CC(C)(C)NC(=O)Nc1cnc2ccc(-c3cc(Cl)c(O)c(Cl)c3)cc2n1` [Compound 77, 1-tert-Butyl-3-[7-(3,5-dichloro-4-hydroxy-phenyl)-quinoxalin-2-yl]-urea] gave a melting point of 292 to 295 °C.

Take `O=C(Nc1cnc2ccc(-c3cc(Cl)c(O)c(Cl)c3)cc2n1)NC1CCCC1` [Compound 81, 1-Cyclopentyl-3-[7-(3,5-dichloro-4-hydroxy-phenyl)-quinoxalin-2-yl]-urea]: the melting point fell in the range of 295 to 296 °C.

On to `O=C(NCCCc1ccccc1)Nc1cnc2ccc(-c3cc(Cl)c(O)c(Cl)c3)cc2n1` [Compound 84, 1-[7-(3,5-Dichloro-4-hydroxy-phenyl)-quinoxalin-2-yl]-3-(3-phenyl-propyl)-urea], for which the melting point lay in the range of 271 to 274 °C.

On to `O=C(NCCc1ccccc1)Nc1cnc2ccc(-c3cc(Cl)c(O)c(Cl)c3)cc2n1` [Compound 85, 1-[7-(3,5-Dichloro-4-hydroxy-phenyl)-quinoxalin-2-yl]-3-phenethyl-urea], for which the EC50 was determined as 1.3 µM in the data set on HCT116; 1.61 µM with MDA MB468; 1.26 µM with PC-3; 1.84 µM in the data set with A549; 0.495 µM in the data set on U87MG.

As to `O=C(Nc1ccccc1)Nc1cnc2ccc(-c3cc(Cl)c(O)c(Cl)c3)cc2n1` [Compound 86, 1-[7-(3,5-Dichloro-4-hydroxy-phenyl)-quinoxalin-2-yl]-3-phenyl-urea], the melting point was > 300 °C.

For the compound `CCNC(=S)Nc1cnc2ccc(-c3cc(Cl)c(O)c(Cl)c3)cc2n1` [Compound 88, 1-[7-(3,5-Dichloro-4-hydroxy-phenyl)-quinoxalin-2-yl]-3-ethyl-thiourea], the melting point is 237 to 238 °C.

Turning to `CCCNC(=S)Nc1cnc2ccc(-c3cc(Cl)c(O)c(Cl)c3)cc2n1` [Compound 89, 1-[7-(3,5-Dichloro-4-hydroxy-phenyl)-quinoxalin-2-yl]-3-propyl-thiourea], the melting point is 237 to 239 °C.

As for `CC(C)NC(=S)Nc1cnc2ccc(-c3cc(Cl)c(O)c(Cl)c3)cc2n1` [Compound 91, 1-[7-(3,5-Dichloro-4-hydroxy-phenyl)-quinoxalin-2-yl]-3-isopropyl-thiourea], the melting point lay within 276 to 278 °C.

In the case of `Oc1c(Cl)cc(-c2ccc3ncc(NC(=S)NC4CCCCCC4)nc3c2)cc1Cl` [Compound 92, 1-Cycloheptyl-3-[7-(3,5-dichloro-4-hydroxy-phenyl)-quinoxalin-2-yl]-thiourea], the melting point fell in the range of 281 to 283 °C.

On to `CC(C)NC(=O)Nc1cnc2ccc(-c3ccc(O)c(Cl)c3)cc2n1` [Compound 95, 1-[7-(3-Chloro-4-hydroxy-phenyl)-quinoxalin-2-yl]-3-isopropyl-urea], for which the melting point fell in the range of 275 to 277 °C.
